Test results reported in ChEMBL document CHEMBL1201862, “PubChem BioAssay data set” (2004).
The source made the active and inactive calls.

Experiments:
[1] = target: Induced myeloid leukemia cell differentiation protein Mcl-1 (Homo sapiens, UniProt Q07820); assay type: functional
Large T antigen = Large T antigen (Simian virus 40, UniProt P03070); assay type: functional, Betapolyomavirus macacae;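 further: Confirmatory-stage PubChem screen for compounds that inhibit SV40 T antigen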
[2] = target: T1, Mannose-6-phosphate isomerase (Homo sapiens, UniProt P34949); assay: inhibitors of human PMI, primary screen, biochemical, fluorescence intensity, coupled assay (AID 1209)
T1 sequence (P34949 whole entry): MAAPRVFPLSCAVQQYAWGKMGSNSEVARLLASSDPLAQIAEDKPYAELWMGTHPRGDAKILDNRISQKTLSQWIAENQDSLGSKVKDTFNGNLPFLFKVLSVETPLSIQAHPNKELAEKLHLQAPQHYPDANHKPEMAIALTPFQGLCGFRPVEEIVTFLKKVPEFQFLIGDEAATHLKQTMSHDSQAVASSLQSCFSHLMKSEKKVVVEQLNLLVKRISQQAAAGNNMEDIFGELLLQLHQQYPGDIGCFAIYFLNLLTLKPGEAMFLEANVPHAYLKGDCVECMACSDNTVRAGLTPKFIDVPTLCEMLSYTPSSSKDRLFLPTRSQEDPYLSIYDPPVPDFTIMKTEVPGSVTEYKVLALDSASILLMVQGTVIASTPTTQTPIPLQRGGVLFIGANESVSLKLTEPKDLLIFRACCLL

[3] = target: T1, Mannose-6-phosphate isomerase; assay: human PMI inhibitors, high substrate, primary screen, biochemical, fluorescence intensity, high mannose 6-phosphate (AID 1220)
[4] = target: T2, Polyadenylate-binding protein 1 (Homo sapiens, UniProt P11940); assay: PABP1 MLLE–PAM2 interaction inhibitors, dose response, miRNA deadenylation inhibitor project, biochemical, fluorescence polarization, Cy5-PAM2 peptide, secondary (AID 602260); assay type: functional; details: read-out: IC50_Mean
[5] = target: T2, Polyadenylate-binding protein 1; assay: PABP1 MLLE–PAM2 binding inhibitor potency, dose response, biochemical, fluorescence polarization, FITC-PAM2 peptide (AID 602259); assay type: functional; details: read-out: IC50_Mean
[6] = target: T3, Rac GTPase-activating protein 1 (Homo sapiens, UniProt Q9H0H5); assay: MgcRacGAP GTPase-activating activity inhibitors, confirmation, biochemical, ADP Hunter fluorescence, primary and confirmatory (AID 624330); assay type: functional
T3 sequence (Q9H0H5 whole entry): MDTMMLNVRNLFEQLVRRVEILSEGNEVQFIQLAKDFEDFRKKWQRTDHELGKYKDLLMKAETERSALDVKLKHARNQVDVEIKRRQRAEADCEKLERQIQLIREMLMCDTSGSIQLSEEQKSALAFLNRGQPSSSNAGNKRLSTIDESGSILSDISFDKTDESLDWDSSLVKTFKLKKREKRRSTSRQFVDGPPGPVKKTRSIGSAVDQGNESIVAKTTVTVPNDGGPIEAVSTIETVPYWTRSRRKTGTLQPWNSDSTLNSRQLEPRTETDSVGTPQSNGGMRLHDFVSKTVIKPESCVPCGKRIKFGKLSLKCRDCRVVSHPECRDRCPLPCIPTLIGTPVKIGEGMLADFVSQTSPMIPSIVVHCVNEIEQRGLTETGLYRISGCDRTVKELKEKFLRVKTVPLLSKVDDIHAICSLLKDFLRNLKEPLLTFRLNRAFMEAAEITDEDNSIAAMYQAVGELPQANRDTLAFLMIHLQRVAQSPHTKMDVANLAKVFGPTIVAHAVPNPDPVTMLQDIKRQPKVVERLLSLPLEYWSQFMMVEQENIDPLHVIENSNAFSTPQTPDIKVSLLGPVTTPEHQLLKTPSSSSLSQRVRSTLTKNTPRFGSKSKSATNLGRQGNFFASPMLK

Aminopeptidase N = target: T4, Aminopeptidase N (Plasmodium falciparum FcB1/Columbia, UniProt O96935); assay: P. falciparum M1AAP inhibitors, biochemical, fluorogenic H-Leu-NHMec substrate, 1536-well (AID 1445); design: species or system Plasmodium falciparum 3D7, 3D7
T4 sequence (O96935 whole entry): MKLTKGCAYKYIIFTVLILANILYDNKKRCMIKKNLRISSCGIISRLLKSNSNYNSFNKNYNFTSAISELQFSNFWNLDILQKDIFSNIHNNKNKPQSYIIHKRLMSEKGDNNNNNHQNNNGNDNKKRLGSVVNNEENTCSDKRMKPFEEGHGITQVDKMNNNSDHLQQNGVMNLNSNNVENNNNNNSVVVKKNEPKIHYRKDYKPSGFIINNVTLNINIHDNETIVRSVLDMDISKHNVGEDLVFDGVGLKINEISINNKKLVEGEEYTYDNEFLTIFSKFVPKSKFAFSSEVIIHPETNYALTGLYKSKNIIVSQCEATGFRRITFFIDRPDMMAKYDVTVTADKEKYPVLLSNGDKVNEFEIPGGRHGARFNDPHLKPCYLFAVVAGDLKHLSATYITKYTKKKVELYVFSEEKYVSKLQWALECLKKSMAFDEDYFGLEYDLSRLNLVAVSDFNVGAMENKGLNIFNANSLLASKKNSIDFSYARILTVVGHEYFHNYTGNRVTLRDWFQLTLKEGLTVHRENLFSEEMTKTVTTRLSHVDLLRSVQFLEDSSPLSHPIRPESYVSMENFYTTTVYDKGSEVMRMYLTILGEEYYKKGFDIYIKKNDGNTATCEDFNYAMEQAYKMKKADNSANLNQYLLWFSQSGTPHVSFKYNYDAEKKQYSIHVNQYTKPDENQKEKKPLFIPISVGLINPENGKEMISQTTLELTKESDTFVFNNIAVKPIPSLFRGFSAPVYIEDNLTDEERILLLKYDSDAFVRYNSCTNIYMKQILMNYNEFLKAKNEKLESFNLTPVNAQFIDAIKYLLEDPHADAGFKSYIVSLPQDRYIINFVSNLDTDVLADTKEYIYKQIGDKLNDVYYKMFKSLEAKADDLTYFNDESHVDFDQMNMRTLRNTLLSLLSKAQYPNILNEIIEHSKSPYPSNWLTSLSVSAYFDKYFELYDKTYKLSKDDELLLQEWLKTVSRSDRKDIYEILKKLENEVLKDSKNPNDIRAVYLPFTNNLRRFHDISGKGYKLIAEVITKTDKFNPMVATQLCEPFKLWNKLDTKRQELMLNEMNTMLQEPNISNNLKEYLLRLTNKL

[7] = target: Glyceraldehyde-3-phosphate dehydrogenase (Homo sapiens, UniProt P04406)
[8] = test system: Streptococcus sp. 'group A'; assay: growth inhibition of control SK(-) GAS strain, dose response, counter-screen for streptokinase expression inhibitor project, luminescence, kanamycin, BacTiterGlo, confirmation (AID 1900); assay type: functional, organism-based
Streptococcus = assay: Group A Streptococcus viability loss, dose response, counter-screen for streptokinase expression inhibitor project, luminescence, BacTiterGlo (AID 1915); assay type: functional, organism-based;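 further: potency for reduction of bacterial viability or growth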
[9] = target: T5, Short transient receptor potential channel 4 (Mus musculus, UniProt Q9QUQ5); assay: mouse TRPC4 channel inhibitors, dose response, cell-based, HEK293 TRPC4/mu-opioid, Fluo-4 calcium (AID 434942); assay type: functional;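 further: potency of inhibitors blocking the TRPC4 calcium response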
T5 sequence (Q9QUQ5 whole entry): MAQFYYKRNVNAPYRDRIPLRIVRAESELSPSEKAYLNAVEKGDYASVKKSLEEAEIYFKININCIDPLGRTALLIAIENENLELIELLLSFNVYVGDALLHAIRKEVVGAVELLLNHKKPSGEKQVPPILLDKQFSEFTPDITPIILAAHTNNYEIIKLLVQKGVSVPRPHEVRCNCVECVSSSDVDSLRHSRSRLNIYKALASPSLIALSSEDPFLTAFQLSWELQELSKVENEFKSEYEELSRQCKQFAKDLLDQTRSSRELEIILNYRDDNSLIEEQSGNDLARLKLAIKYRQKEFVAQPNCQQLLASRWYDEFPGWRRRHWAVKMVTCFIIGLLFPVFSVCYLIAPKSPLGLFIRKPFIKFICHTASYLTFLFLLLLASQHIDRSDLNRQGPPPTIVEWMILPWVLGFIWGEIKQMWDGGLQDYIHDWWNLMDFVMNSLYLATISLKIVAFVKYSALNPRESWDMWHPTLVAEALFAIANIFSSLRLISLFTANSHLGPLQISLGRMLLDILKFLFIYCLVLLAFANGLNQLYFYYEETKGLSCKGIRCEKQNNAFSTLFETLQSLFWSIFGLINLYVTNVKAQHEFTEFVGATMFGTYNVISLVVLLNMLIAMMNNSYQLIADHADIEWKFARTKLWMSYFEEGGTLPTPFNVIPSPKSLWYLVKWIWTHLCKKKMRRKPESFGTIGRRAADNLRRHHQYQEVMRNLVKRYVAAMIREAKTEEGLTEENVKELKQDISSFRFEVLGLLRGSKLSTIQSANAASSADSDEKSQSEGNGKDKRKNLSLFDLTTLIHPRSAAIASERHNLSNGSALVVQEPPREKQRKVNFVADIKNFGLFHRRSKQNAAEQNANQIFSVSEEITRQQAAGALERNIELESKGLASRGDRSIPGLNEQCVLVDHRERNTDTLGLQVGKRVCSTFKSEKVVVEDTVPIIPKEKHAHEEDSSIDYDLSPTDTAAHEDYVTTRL

[10] = target: T6, Replicative DNA helicase DnaB (Mycobacterium tuberculosis, UniProt P9WMR3); assay: DnaB intein splicing inhibitors, dose response, biochemical, cell-free fluorescence (AID 449749); assay type: functional
T6 sequence (P9WMR3 whole entry): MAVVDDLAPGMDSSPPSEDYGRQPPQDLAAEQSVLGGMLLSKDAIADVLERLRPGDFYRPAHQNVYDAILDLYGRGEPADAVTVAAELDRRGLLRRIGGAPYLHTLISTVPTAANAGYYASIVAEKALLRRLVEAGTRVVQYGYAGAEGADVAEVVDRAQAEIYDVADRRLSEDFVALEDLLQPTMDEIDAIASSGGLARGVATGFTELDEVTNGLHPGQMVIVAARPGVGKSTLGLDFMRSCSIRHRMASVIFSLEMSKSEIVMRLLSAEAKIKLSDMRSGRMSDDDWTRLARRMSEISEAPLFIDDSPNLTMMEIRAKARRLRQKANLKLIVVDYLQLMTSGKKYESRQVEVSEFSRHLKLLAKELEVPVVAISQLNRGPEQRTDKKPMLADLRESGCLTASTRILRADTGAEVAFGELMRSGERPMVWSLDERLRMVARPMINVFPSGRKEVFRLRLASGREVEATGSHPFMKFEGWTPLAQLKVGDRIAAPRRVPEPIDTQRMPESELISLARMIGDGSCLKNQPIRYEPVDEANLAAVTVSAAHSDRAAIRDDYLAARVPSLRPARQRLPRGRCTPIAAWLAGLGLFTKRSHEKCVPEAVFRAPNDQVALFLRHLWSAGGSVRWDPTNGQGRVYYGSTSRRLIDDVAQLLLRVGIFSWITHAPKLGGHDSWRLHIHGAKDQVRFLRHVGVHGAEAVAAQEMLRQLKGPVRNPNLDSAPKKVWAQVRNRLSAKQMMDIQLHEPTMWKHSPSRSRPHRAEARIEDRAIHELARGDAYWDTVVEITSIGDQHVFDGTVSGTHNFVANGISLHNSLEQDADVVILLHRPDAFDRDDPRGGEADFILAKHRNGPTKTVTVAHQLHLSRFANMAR

Protein RecA = target: T7, Protein RecA (Mycobacterium tuberculosis, UniProt P9WHJ3); assay: Fluorescence Cell-Free Homogeneous Dose Retest to Identify Inhibitors of RecA-Intein Splicing Activity. [Related pubchem assays (depositor defined):AID2097, AID2223, AID489010, AID492950]; assay type: functional
T7 sequence (P9WHJ3 whole entry): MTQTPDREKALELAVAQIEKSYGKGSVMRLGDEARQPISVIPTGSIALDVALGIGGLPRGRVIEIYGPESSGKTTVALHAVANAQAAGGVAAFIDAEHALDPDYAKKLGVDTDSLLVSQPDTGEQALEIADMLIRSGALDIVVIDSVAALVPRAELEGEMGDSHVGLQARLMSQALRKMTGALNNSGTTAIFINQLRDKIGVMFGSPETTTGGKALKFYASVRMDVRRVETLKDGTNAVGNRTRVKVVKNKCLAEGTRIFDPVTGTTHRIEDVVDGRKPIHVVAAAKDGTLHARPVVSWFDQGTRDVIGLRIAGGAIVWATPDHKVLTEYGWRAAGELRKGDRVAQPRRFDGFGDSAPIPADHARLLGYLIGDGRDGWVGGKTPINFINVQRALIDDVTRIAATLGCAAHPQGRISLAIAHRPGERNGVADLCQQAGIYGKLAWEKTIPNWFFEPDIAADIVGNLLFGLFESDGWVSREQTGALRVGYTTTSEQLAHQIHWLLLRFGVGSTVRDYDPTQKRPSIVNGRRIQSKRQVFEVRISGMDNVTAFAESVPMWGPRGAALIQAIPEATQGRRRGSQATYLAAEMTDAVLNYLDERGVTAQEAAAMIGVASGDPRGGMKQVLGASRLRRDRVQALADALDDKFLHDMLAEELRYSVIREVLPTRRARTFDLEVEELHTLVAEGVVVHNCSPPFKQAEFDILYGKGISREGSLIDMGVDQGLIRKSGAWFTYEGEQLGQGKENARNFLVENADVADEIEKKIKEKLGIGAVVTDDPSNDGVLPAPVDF

Induced myeloid leukemia cell differentiation protein Mcl-1, sequence (Q07820 whole entry): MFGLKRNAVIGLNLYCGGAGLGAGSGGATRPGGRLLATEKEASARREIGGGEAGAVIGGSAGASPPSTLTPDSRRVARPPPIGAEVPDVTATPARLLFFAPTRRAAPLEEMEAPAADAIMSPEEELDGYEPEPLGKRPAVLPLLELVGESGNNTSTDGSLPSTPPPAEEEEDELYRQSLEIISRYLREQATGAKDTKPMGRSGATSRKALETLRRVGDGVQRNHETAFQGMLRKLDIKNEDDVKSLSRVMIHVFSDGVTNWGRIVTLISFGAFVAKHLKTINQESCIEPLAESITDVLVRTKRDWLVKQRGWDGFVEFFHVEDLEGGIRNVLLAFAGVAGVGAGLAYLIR
Glyceraldehyde-3-phosphate dehydrogenase, sequence (P04406 whole entry): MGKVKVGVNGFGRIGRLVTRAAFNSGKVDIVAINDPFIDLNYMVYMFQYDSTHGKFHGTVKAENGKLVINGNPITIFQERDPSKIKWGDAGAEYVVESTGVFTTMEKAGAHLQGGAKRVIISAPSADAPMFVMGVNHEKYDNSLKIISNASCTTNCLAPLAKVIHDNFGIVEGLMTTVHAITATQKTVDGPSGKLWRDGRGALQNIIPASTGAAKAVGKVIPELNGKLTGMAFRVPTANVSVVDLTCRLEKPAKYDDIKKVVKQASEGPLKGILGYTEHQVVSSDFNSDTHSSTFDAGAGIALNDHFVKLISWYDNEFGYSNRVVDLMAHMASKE
T2 sequence (P11940 whole entry): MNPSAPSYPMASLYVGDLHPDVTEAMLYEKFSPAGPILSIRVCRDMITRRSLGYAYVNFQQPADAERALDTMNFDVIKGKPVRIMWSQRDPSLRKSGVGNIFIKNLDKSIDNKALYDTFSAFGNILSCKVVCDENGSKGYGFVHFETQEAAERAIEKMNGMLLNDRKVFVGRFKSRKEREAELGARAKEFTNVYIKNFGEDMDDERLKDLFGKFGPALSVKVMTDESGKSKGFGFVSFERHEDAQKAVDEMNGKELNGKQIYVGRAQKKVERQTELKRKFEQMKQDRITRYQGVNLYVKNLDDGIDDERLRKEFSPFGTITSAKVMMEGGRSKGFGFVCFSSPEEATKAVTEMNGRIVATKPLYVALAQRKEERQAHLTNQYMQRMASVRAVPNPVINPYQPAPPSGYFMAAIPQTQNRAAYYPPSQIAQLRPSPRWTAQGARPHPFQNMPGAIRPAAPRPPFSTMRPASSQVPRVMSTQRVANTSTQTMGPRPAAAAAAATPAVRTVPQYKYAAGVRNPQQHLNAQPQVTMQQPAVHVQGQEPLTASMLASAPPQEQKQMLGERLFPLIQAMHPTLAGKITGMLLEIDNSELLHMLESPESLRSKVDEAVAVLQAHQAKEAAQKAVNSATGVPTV
Large T antigen, sequence (P03070 whole entry): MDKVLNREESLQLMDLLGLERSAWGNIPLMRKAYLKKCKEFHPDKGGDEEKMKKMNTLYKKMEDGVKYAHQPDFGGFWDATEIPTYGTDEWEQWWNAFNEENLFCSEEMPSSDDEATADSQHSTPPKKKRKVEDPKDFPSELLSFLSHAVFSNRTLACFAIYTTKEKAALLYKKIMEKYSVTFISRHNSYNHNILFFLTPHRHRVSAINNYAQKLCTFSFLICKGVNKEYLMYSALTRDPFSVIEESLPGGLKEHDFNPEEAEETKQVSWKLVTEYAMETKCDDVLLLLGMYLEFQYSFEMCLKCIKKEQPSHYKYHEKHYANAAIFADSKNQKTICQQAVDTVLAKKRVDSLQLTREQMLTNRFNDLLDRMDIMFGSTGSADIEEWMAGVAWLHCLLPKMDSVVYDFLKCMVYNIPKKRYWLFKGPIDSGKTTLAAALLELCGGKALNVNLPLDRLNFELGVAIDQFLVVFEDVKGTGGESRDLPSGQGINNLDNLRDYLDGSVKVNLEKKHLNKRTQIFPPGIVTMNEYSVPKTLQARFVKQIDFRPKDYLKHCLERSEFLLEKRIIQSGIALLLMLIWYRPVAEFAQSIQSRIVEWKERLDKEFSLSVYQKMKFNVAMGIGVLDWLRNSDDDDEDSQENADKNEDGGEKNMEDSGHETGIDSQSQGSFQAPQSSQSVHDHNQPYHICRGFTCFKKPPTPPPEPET

Structure (SMILES): CCCOc1ccc(Cc2nn3c(=O)/c(=C/c4ccco4)sc3nc2=O)cc1
- IC50 [1]: 8.96 µM (not active)

Structure (SMILES): Oc1ccc(/C=N/Nc2ccnc3cc(Cl)ccc23)c(O)c1
- IC50 [1]: 6.73 µM (active)

Structure (SMILES): COc1ccccc1/C=C1/SC(=O)N(CCC(=O)Nc2ccc(S(=O)(=O)Nc3nccs3)cc2)C1=O
- IC50 [1]: 2.69 µM (active)

Structure (SMILES): Nc1nnc(S)n1N=C1C(=O)Nc2ccccc21
- IC50 (Large T antigen): 7.65 µM (active)
- IC50 [2]: 30 µM (active)
- IC50 [3]: 4.84 µM (active)
- IC50 [4]: > 66 µM (inactive)
- IC50 [5]: > 66 µM (inactive)
- IC50 [6]: 57.4 µM (active)

Structure (SMILES): CC(=O)NNC(=O)c1sc(=S)n2c1[nH]c(=O)c1sccc12
- IC50 (Aminopeptidase N): 11.6 µM (active)
- IC50 [2]: > 50 µM (not active)
- IC50 [3]: > 50 µM (not active)

Structure (SMILES): COc1ccc(N2CCN(C3=C(Cl)C(=O)N(c4cccc(OC)c4)C3=O)CC2)cc1
- IC50 [7]: > 50 µM (inconclusive)

Structure (SMILES): O=C(NCCO)c1cc(-c2ccc(F)cc2F)n[nH]1
- IC50 [7]: > 10 µM (inconclusive)

Structure (SMILES): Cc1[nH]n(-c2ccccc2)c(=O)c1/C=C1/C(=O)NN(c2ccc(F)c(Cl)c2)C1=O
- EC50 [8]: 4.06 µM (active)
- IC50 [1]: 5.78 µM (active)
- EC50 (Streptococcus): 7.24 µM (active)
- EC50 [9]: 5.31 µM (active)
- AC50 [10]: 4.54 µM (active)
- EC50 (Protein RecA): 12 µM (active)

Structure (SMILES): C[C@H]1CN(C2=C(Cl)C(=O)N(c3ccnc(Cl)c3)C2=O)CCN1
- IC50 [7]: > 50 µM (inconclusive)
